From patent EP4159213A1, “PHARMACEUTICAL COMPOSITIONS FOR USE IN PREVENTION AND/OR TREATMENT AND/OR CURE OF HEPATITIS B VIRUS” (Katholieke Universiteit Leuven, priority 2021, dated 2023)
Counter-ions that a name gives are not always drawn. Like-named read-outs stand apart in the source and are kept apart here.

Target: T1, human NTCP (Homo sapiens, UniProt Q14973)
T1 sequence (Q14973 1-349): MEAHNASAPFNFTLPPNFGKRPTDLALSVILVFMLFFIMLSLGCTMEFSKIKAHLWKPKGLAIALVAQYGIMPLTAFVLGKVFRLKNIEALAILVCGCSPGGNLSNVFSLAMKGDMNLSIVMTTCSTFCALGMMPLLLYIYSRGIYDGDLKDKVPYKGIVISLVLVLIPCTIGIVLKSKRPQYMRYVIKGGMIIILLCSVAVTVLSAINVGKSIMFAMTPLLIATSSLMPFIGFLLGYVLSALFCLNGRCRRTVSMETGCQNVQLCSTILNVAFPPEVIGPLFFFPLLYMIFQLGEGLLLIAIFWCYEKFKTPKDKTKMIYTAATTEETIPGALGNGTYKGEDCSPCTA
Assay: Inhibition of tauro-nor-THCA-24-DBD uptake in NTCP-transfected CHO cells
Assay type: cell-based
Design: expressed in transfected cells; host or cells: CHO cells, geneticin selection, expression induced with sodium butyrate
Details: for concentration-dependent inhibition of tauro-nor-THCA-24-DBD uptake: multiple inhibitor concentrations
Method: The cells were placed in an incubator at 37 °C and 5% CO2. The culture medium consisted of DMEM with 1 g·L^-1 glucose and 25 mM HEPES, supplemented with 10% FBS, 0.05 mg·mL^-1 L-proline, 100 IU·mL^-1 penicillin, 100 […], 2 mM glutamine, 0.11 mg·mL^-1 sodium pyruvate. To ensure selection of NTCP-transfected cells, 0.5 mg·mL^-1 geneticin was added to the medium of the transfected cells. Cells were seeded in black 96-well plates with transparent bottom at a density of 6000 cells·well^-1 and 4000 cells·well^-1 for wild-type and transfected cells, respectively. The medium was replaced every other day and 5 mM sodium butyrate was added to induce protein expression at least 36 h before the start of the experiments. Experiments were performed on day 4 or 5 after seeding when confluence was reached.
Furthermore, to analyse the uptake experiments in NTCP-transfected CHO cells, cells were rinsed twice with 200 µL-well^-1 uptake buffer (HBSS containing 10 mM HEPES, pH 7.4) at 37 °C and subsequently preincubated with 100 µL uptake buffer for 15 minutes. For inhibition experiments, compounds were added at double concentration during preincubation. Uptake was initiated by adding 100 µL double-concentrated tauro-nor-THCA-24-DBD solution in uptake buffer. Cells were incubated for 15 minutes. The reaction was quenched by aspirating the incubation mixture and washing four times with ice cold uptake buffer. The cells were lysed with 100 µL 0.5% Triton X-100 in PBS and placed on a plate shaker (300 rpm) at room temperature for 30 minutes. Uptake of tauro-nor-THCA-24-DBD was determined using fluorescence spectroscopy (excitation 440 nm, emission 580 nm) using a Tecan Infinite 200 plate reader (Tecan Benelux, Mechelen, Belgium). Protein content of each well was determined with the BCA Protein assay (Thermo Fisher Scientific, Waltham, MA) performed according to the manufacturer's protocol. Uptake kinetics of tauro-nor-THCA-24-DBD were determined by incubating eight different concentrations in the absence of any compound. […] All conditions were tested in triplicate.
Uptake of tauro-nor-THCA-24-DBD in presence of compounds was expressed to uptake of the control for each batch, i.e. when no compound was present.
For determination of the IC50, the uptake in presence of various concentrations of inhibitor was fitted to the sigmoid Emax model: E = Emax −(Emax−E0) × (([I])^n)/(([I])^n + IC50^n) [formula] with E the uptake of tauro-nor-THCA-24-DBD, E0 the uptake at maximal inhibition by the compound, Emax the uptake at minimal inhibition, IC50 the concentration of the inhibitor at half maximal inhibition, n the Hill coefficient and [I] the concentration of the inhibitor. All curves were fitted with nonlinear least squares regression using R version 3.5.1.
Assuming competitive inhibition, the Cheng-Prusoff equation was used to determine the Ki value: Ki = (IC50)/(1 + ([S])/(Km)) [formula] where Ki is the binding affinity of the inhibitor, IC50 the concentration of the inhibitor at half maximal inhibition, [S] the substrate concentration, and Km the Michaelis-Menten constant of the substrate.

[1] = 3 µM tauro-nor-THCA-24-DBD, Cheng-Prusoff from IC50, screening hits, read-out: Ki
[2] = compound at equimolar concentration with 3 µM tauro-nor-THCA-24-DBD, triplicate
[3] = 3 µM tauro-nor-THCA-24-DBD, values given with ± spread, read-out: Ki
[4] = 3 µM tauro-nor-THCA-24-DBD, 15 minutes, Cheng-Prusoff from IC50, known NTCP inhibitors, read-out: Ki ± SE

With CCC(=O)O[C@H]1[C@H](O[C@@H]2[C@@H](C)[C@H](O[C@H]3C[C@@](C)(OC)[C@@H](O)[C@H](C)O3)[C@@H](C)C(=O)O[C@H](CC)[C@@](C)(O)[C@H](O)[C@@H](C)C(=O)[C@H](C)C[C@@]2(C)O)O[C@H](C)C[C@@H]1N(C)C [Erythromycin estolate] the Ki [1] was 520 nM and the “Uptake of tauro-nor-THCA-24-DBD (% of control)” value (“Uptake … (% of control)” for short) [2] was 8.49 % of control.
With COC(=O)CC[C@@H](C)[C@H]1CC[C@H]2[C@@H]3CC[C@@H]4C[C@H](O)CC[C@]4(C)[C@H]3C[C@H](O)[C@]12C [Methyl deoxycholate] the Ki [1] was 4840 nM and the “Uptake … (% of control)” value [2] was 36.71 % of control.
Cc1cc(O)c(C=O)c(O)c1C(=O)O [Haematommic acid] was tested, and the “Uptake … (% of control)” value [2] was 49.33 % of control.
With CC/C(=C(/CC)c1ccc(O)cc1)c1ccc(O)cc1 [Diethylstilbestrol] the Ki [1] was 1570 nM and the “Uptake … (% of control)” value [2] was 48.51 % of control.
O=C(O)c1cc(O)c2c(c1)[C@@H]([C@H]1c3cc(C(=O)O)cc(O)c3C(=O)c3c(O[C@@H]4O[C@H](CO)[C@@H](O)[C@H](O)[C@H]4O)cccc31)c1cccc(O[C@@H]3O[C@H](CO)[C@@H](O)[C@H](O)[C@H]3O)c1C2=O [sennoside B] was tested, and the “concentration-dependent inhibition of tauro-nor-THCA-24-DBD uptake” value (from here on “concentration-dependent inhibition”) (3 µM tauro-nor-THCA-24-DBD) was “did not show concentration-dependent inhibition”.
In the case of CC(C)(O)CC[C@@H](O)[C@](C)(O)[C@H]1CC[C@@]2(O)C3=CC(=O)[C@@H]4C[C@@H](O)[C@@H](O)C[C@]4(C)[C@H]3CC[C@]12C [Crustecdysone], the “Uptake … (% of control)” value [2] is reported as 46.18 % of control.
For Nc1nc(=O)c2[nH]c(=O)cnc2[nH]1 [Xanthopterin], the “Uptake … (% of control)” value [2] was 49.67 % of control.
For Cc1cc2c(C(=O)NC[C@H](C)c3ccccc3)c(O)c(O)cc2c(O)c1-c1c(C)cc2c(C(=O)NC[C@H](C)c3ccccc3)c(O)c(O)cc2c1O [sabutoclax], the “concentration-dependent inhibition” value (3 µM tauro-nor-THCA-24-DBD) was “showed concentration-dependent inhibition” and the Ki [3] was 522 ± 77 nM.
With COc1cc2c(cc1OC)[C@@H]1C(=O)c3ccc4c(c3O[C@@H]1CO2)C=CC(C)(C)O4 [(-)-Deguelin] the Ki [1] was 1670 nM and the “Uptake … (% of control)” value [2] was 27.97 % of control.
In the case of CN[C@@H]1[C@@H](O)[C@@H](O[C@@H]2[C@@H](O)[C@H](O[C@H]3O[C@H]([C@@H](C)O)[C@@H](O)[C@H](O)[C@H]3N)[C@@H](N)C[C@H]2N)OC[C@]1(C)O [Geneticin], the “Uptake … (% of control)” value [2] is reported as 43.81 % of control.
With COc1cc(-c2coc3cc(OCc4ccccc4)c(OC)c(O)c3c2=O)cc(O)c1OC [Irigenin, 7-benzyl ether] the Ki [1] was 13000 nM and the “Uptake … (% of control)” value [2] was 46.71 % of control.
For Echinocystic acid, the “Uptake … (% of control)” value [2] was 24.64 % of control.
In the case of O=C(Nc1ccc([N+](=O)[O-])cc1Cl)c1cc(Cl)ccc1O [Niclosamide], the Ki [1] is reported as 80 nM and the “Uptake … (% of control)” value [2] is reported as 35.45 % of control.
COc1ccc(-c2oc3c(CC=C(C)C)c(O)cc(O)c3c(=O)c2O[C@@H]2O[C@@H](C)[C@H](O)[C@@H](O)[C@H]2O)cc1 [Baohuoside I] was tested, and the “concentration-dependent inhibition” value (3 µM tauro-nor-THCA-24-DBD) was “showed concentration-dependent inhibition” and the Ki [3] was 12600 ± 4100 nM.
In the case of CCCCCc1c2c(cc(O)c1C(=O)O)OC(=O)c1c(cc(OC)cc1C(=O)CCCC)O2 [Lobaric acid], the Ki [1] is reported as 360 nM and the “Uptake … (% of control)” value [2] is reported as 9.70 % of control.
COC(=O)[C@H]1[C@H]2C[C@H]3c4[nH]c5ccccc5c4CCN3C[C@H]2CC[C@@H]1O [Rauwolscine hydrochloride] showed a Ki [1] of 39300 nM.
For Oc1c(Cl)c(Cl)c(Cl)c(Cl)c1Cl [Pentachlorophenol], the Ki [1] was 2270 nM and the “Uptake … (% of control)” value [2] was 46.29 % of control.
In the case of COc1ccc(-c2c(OC)c3c(OC)c4c(cc3oc2=O)OC(C)(C)C=C4)cc1 [Robustic acid methyl ether], the Ki [1] is reported as 10600 nM and the “Uptake … (% of control)” value [2] is reported as 21.11 % of control.
In the case of Dehydroavocatin-1 -acetate, the Ki [1] is reported as 118000 nM and the “Uptake … (% of control)” value [2] is reported as 44.14 % of control.
In the case of COc1cc2c3cc1Oc1cc(ccc1O)C[C@@H]1c4c(cc(OC)c(O)c4Oc4ccc(cc4)C[C@@H]3N(C)CC2)CC[N+]1(C)C.Cl.O.O.O.O.O.[Cl-] [Tubocurarine chloride], the “Uptake … (% of control)” value [2] is reported as 49.76 % of control.
In the case of CCOc1nc2cccc(C(=O)O)c2n1Cc1ccc(-c2ccccc2-c2nnn[nH]2)cc1 [candesartan], the Ki [3] is reported as 50900 ± 9900 nM.
With O=C1OC(c2ccc(O)c(S(=O)(=O)O)c2)(c2ccc(O)c(S(=O)(=O)O)c2)c2c(Br)c(Br)c(Br)c(Br)c21 [Bromosulfophthalein] the Ki [4] was 10700 ± 3100 nM and the “concentration-dependent inhibition” value (3 µM tauro-nor-THCA-24-DBD) was “concentration-dependent manner”.
COc1cc2c(cc1OC)[C@@H]1C(=O)c3ccc4c(c3O[C@@H]1CO2)C[C@H](C(C)C)O4 [Dihydrorotenone] was tested, and the Ki [1] was 1110 nM and the “Uptake … (% of control)” value [2] was 37.31 % of control.
In the case of CC[C@H]1OC(=O)[C@H](C)[C@@H](O[C@H]2C[C@@](C)(OC)[C@@H](O)[C@H](C)O2)[C@H](C)[C@@H](O[C@@H]2O[C@H](C)C[C@H](N(C)C)[C@H]2O)[C@](C)(O)C[C@@H](C)C(=O)[C@H](C)[C@@H](O)[C@]1(C)O [erythromycin], the “concentration-dependent inhibition” value (3 µM tauro-nor-THCA-24-DBD) is reported as “Only candesartan showed inhibition”.
With O=C(O)c1cc([N+](=O)[O-])ccc1NCCCc1ccccc1 [5-nitro-2-phenylpropylaminobenzoic acid] the Ki [1] was 820 nM and the “Uptake … (% of control)” value [2] was 49.55 % of control.
With COC(=O)CC[C@@H](C)[C@H]1CC[C@H]2[C@@H]3[C@H](O)C[C@@H]4C[C@H](O)CC[C@]4(C)[C@H]3C[C@H](O)[C@]12C [Cholic acid, methyl ester] the Ki was 2320 nM and the “Uptake … (% of control)” value was 37.90 % of control.
For CC(=O)O.Cc1cc2c(C(C)C)c(O)c(O)c(C=O)c2c(O)c1-c1c(C)cc2c(C(C)C)c(O)c(O)c(C=O)c2c1O [Gossypol-acetic acid complex], the Ki [1] was 3100 nM and the “Uptake … (% of control)” value [2] was 36.14 % of control.
With CCOc1nc2cccc(C(=O)OC(C)OC(=O)OC3CCCCC3)c2n1Cc1ccc(-c2ccccc2-c2nnn[nH]2)cc1 (stereo not drawn) [Candesartan cilextil] the Ki [1] was 340 nM and the “Uptake … (% of control)” value [2] was 19.76 % of control.
For COc1ccccc1Oc1c(NS(=O)(=O)c2ccc(C(C)(C)C)cc2)nc(-c2ncccn2)nc1OCCO [Bosentan], the Ki [4] was 6300 ± 1400 nM and the “concentration-dependent inhibition” value (3 µM tauro-nor-THCA-24-DBD) was “concentration-dependent manner”.
Cn1nnnc1SCC1=C(C(=O)O)N2C(=O)[C@@H](NC(=O)[C@H](O)c3ccccc3)[C@H]2SC1 [Cefamandole sodium] was tested, and the Ki [1] was 2070 nM and the “Uptake … (% of control)” value [2] was 23.97 % of control.
C=CC(C)(O)CCC=C(C)C (stereo not drawn) [(+)- Linalool] was tested, and the “Uptake … (% of control)” value [2] was 46.35 % of control.
Oc1c(Cl)cc(Cl)c(Cl)c1Cc1c(O)c(Cl)cc(Cl)c1Cl [Hexachlorophene] was tested, and the Ki was 260 nM and the “Uptake … (% of control)” value [2] was 23.92 % of control.
In the case of COC(=O)C1=C(C)NC(C)=C(C(=O)OCCN(C)Cc2ccccc2)C1c1cccc([N+](=O)[O-])c1 (stereo not drawn) [Nicardipine hydrochloride], the Ki [1] is reported as 3530 nM and the “Uptake … (% of control)” value [2] is reported as 42.69 % of control.
In the case of COP(=S)(OC)Oc1ccc(Sc2ccc(OP(=S)(OC)OC)cc2)cc1 [Temefos], the Ki [1] is reported as 4160 nM and the “Uptake … (% of control)” value [2] is reported as 38.51 % of control.
